Assay results reported in patent US11952330B2, “Antibiotic ammonium compounds and methods for the treatment of bacterial infections” (priority 2019, dated 2024).

Experiments:
A. baumannii = assay: MIC by broth dilution, A. baumannii; type: cell-based; conditions: Acinetobacter baumannii; Mueller-Hinton broth, overnight 37° C.; Table 1; read-out: MIC (μg/mL) A. baumannii
Experimental: (§1) The antibacterial efficacy of the ammonium compounds was assessed. Minimum inhibitory concentrations (MICs) were determined by broth dilution method. Dilutions of each compound, ranging from 1 μg/mL to 256 μg/mL (final concentrations) were prepared in Mueller-Hinton broth. Compound dilutions were added to wells of a 96-well plate, with the concentration of the compound increasing 2-fold by row. Each well contained 5×10^5 CFU/ml of target bacterium in a total volume of 100 μl. Plates were incubated overnight at 37° C. The following day, plates were evaluated for a visual change in growth to determine the MIC. The concentration value corresponding to the first row that no longer had visible bacterial growth, as evaluated by turbidity in the wells, was recorded as the MIC. MIC values were representative of at least biological duplicates, each made up of technical triplicates. The antibacterial efficacy of ammonium compounds in the presence of human plasma was assessed. Minimum inhibitory concentrations (MICs) were determined by broth dilution method. Dilutions of each compound, ranging from 1 μg/mL to 256 μg/mL (final concentrations) were prepared in Mueller-Hinton broth. For the plasma containing samples, compound dilutions were made in Mueller-Hinton broth and supplemented with 5% (final %) human plasma (esterases). Compound dilutions were added to wells of a 96-well plate, with the concentration of the compound increasing 2-fold by row. Each well contained 5×10^5 CFU/mL of target bacterium in a total volume of 100 μL. Plates were incubated overnight at 37° C. The following day, plates were evaluated for a visual change in growth to determine the MIC. The concentration value corresponding to the first row that no longer had visible bacterial growth, as evaluated by turbidity in the wells, was recorded as the MIC. MIC values were representative of at least biological duplicates, each made up of technical triplicates.

S. aureus = assay: MIC by broth dilution, S. aureus; type: cell-based; conditions: Staphylococcus aureus; Mueller-Hinton broth, overnight 37° C.; Table 1; read-out: MIC (μg/mL) S. aureus
Experimental: as §1

| SMILES | MIC (A. baumannii) | MIC (S. aureus) |
| --- | --- | --- |
| CCCC(CCC)Oc1ccccc1C(=O)Nc1ccc(C(=O)OCC[N+](C)(CC)CC)cc1.[Br-] [Compound 96, N,N-Diethyl-2-((4-(2-(heptan-4-yloxy)benzamido)benzoyl)oxy)-N-methylethan-1-aminium bromide] | > 30 µg/mL | 3 to 30 µg/mL |
| CCCCCCOc1ccccc1C(=O)Nc1ccc(C(=O)OCC[N+](CC)(CC)CCCC)cc1.[Br-] [Compound 67, N,N-Diethyl-N-(2-((4-(2-(hexyloxy)benzamido)benzoyl)oxy)ethyl)butan-1-aminium bromide] | > 30 µg/mL | 3 to 30 µg/mL |
| CCCCCCCCOc1ccccc1C(=O)Nc1ccc(C(=O)N(C)C2CC[N+](CC)(CCC)CC2)cc1.[Br-] (stereo not shown) [Compound 74, 1-Ethyl-4-(N-methyl-4-(2-(octyloxy)benzamido)benzamido)-1-propylpiperidin-1-ium bromide] | > 30 µg/mL | 3 to 30 µg/mL |
| CCCCCCCOc1ccccc1C(=O)Nc1ccc(C(=O)NCC[N+](C)(CC)CC)cc1.[Br-] [Compound 77, N,N-Diethyl-2-(4-(2-(heptyloxy)benzamido)benzamido)-N-methylethan-1-aminium bromide] | > 30 µg/mL | 3 to 30 µg/mL |
| CCCCCCCOc1ccccc1C(=O)Nc1ccc(S(=O)(=O)NCC[N+](CC)(CC)CCCC)cc1.[Br-] [Compound 93, N,N-Diethyl-N-(2-((4-(2-(heptyloxy)benzamido)phenyl)sulfonamido)ethyl)butan-1-aminium bromide] | > 30 µg/mL | 3 to 30 µg/mL |
| CCCCCCCCOc1cc(F)ccc1C(=O)Nc1ccc(C(=O)OCC[N+](C)(CC)CC)cc1.[Br-] [Compound 87, N,N-Diethyl-2-((4-(4-fluoro-2-(octyloxy)benzamido)benzoyl)oxy)-N-methylethan-1-aminium bromide] | > 30 µg/mL | 3 to 30 µg/mL |
| CCCCCCCCOc1ccccc1C(=O)Nc1ccc(C(=O)N2CC[N+](C)(CC)CC2)cc1.[Br-] [Compound 54, 1-Ethyl-1-methyl-4-(4-(2-(octyloxy)benzamido)benzoyl)piperazin-1-ium bromide] | > 30 µg/mL | > 30 µg/mL |
| CCCCCCCCOc1ccccc1C(=O)Nc1ccc(C(=O)NC2CC[N+](C)(CC)CC2)cc1.[Br-] (stereo not shown) [Compound 80, 1-Ethyl-1-methyl-4-(4-(2-(octyloxy)benzamido)benzamido)piperidin-1-ium bromide] | > 30 µg/mL | 3 to 30 µg/mL |
| CCCCCCCCOc1ccccc1C(=O)Nc1ccc(C(=O)OC2CC[N+](C)(CC)CC2)cc1.[Br-] (stereo not shown) [Compound 53, 1-Ethyl-1-methyl-4-((4-(2-(octyloxy)benzamido)benzoyl)oxy)piperidin-1-ium bromide] | > 30 µg/mL | 3 to 30 µg/mL |
| CCCCCCCCOc1ccccc1C(=O)Nc1cccc(C(=O)OCC[N+](C)(CC)CC)c1.[Br-] [Compound 12, N,N-Diethyl-N-methyl-2-((3-(2-(octyloxy)benzamido)benzoyl)oxy)ethan-1-aminium bromide] | > 30 µg/mL | 3 to 30 µg/mL |
| CCCCCCCCOc1ccccc1C(=O)Nc1ccc(C(=O)NC2CC[N+](C)(CCC)CC2)cc1.[Br-] (stereo not shown) [Compound 72, 1-Methyl-4-(4-(2-(octyloxy)benzamido)benzamido)-1-propylpiperidin-1-ium bromide] | > 30 µg/mL | 3 to 30 µg/mL |
| CCCCCCCOc1ccccc1C(=O)Nc1ccc(C(=O)NC2CC[N+](CCC)(CCC)CC2)cc1.[Br-] [Compound 76, 4-(4-(2-(Heptyloxy)benzamido)benzamido)-1,1-dipropylpiperidin-1-ium bromide] | > 30 µg/mL | 3 to 30 µg/mL |
| CCCCCCCCCC[N+](CC)(CC)CCOC(=O)c1ccc(NC(=O)c2ccccc2OCCCCCCCC)cc1.[Br-] [Compound 48, N,N-Diethyl-N-(2-((4-(2-(octyloxy)benzamido)benzoyl)oxy)ethyl)decan-1-aminium bromide] | > 30 µg/mL | < 3 µg/mL |
| CCCCCOc1ccccc1C(=O)Nc1ccc(C(=O)OCC[N+](CC)(CC)CCC)cc1.[Br-] [Compound 64, N,N-Diethyl-N-(2-((4-(2-(pentyloxy)benzamido)benzoyl)oxy)ethyl)propan-1-aminium bromide] | > 30 µg/mL | 3 to 30 µg/mL |
| CCCCCCCOc1ccccc1C(=O)Nc1ccc(C(=O)OCC[N+](CC)(CC)CCC)cc1.[Br-] [Compound 69, N,N-Diethyl-N-(2-((4-(2-(heptyloxy)benzamido)benzoyl)oxy)ethyl)propan-1-aminium bromide] | > 30 µg/mL | 3 to 30 µg/mL |
| CCCCCCCCOc1ccccc1C(=O)Nc1ccc(C(=O)NC2CC[N+](CC)(CCC)CC2)cc1.[Br-] (stereo not shown) [Compound 84, 1-Ethyl-4-(4-(2-(octyloxy)benzamido)benzamido)-1-propylpiperidin-1-ium bromide] | > 30 µg/mL | 3 to 30 µg/mL |
| CCCCCCCCOc1ccccc1C(=O)Nc1ccc(C(=O)OCC[N+](CC)(CC)CCCCCCCC)cc1.[Br-] [Compound 38, N,N-Diethyl-N-(2-((4-(2-(octyloxy)benzamido)benzoyl)oxy)ethyl)octan-1-aminium bromide] | > 30 µg/mL | < 3 µg/mL |

The next lines start with the values.

| MIC (A. baumannii) | MIC (S. aureus) | SMILES |
| --- | --- | --- |
| 3 to 30 µg/mL | 3 to 30 µg/mL | CCCCCCCCOc1ccccc1C(=O)Nc1ccc(C(=O)OCCC[N+](C)(CC)CC)cc1.[I-] [Compound 45, N,N-Diethyl-N-methyl-3-((4-(2-(octyloxy)benzamido)benzoyl)oxy)propan-1-aminium iodide] |
| 3 to 30 µg/mL | 3 to 30 µg/mL | CCCCCCCCOc1ccccc1C(=O)Nc1ccc(C(=O)OCC[N+](C)(CC)CC)c(F)c1.[Br-] [Compound 90, N,N-Diethyl-2-((2-fluoro-4-(2-(octyloxy)benzamido)benzoyl)oxy)-N-methylethan-1-aminium bromide] |
| > 30 µg/mL | > 30 µg/mL | CCCCCCCCOc1ccc(C(=O)Nc2ccc(C(=O)OCC[N+](C)(CC)CC)cc2)c(OCCCCCCCC)c1.[Br-] [Compound 15, 2-((4-(2,4-Bis(octyloxy)benzamido)benzoyl)oxy)-N,N-diethyl-N-methylethan-1-aminium bromide] |
| 3 to 30 µg/mL | < 3 µg/mL | CCCCCCCCOc1ccccc1C(=O)Nc1ccc(C(=O)OCC[N+](CC)(CC)CCCCCC)cc1.[Br-] [Compound 36, N,N-Diethyl-N-(2-((4-(2-(octyloxy)benzamido)benzoyl)oxy)ethyl)hexan-1-aminium bromide] |
| 3 to 30 µg/mL | 3 to 30 µg/mL | CCCCCCCCOc1ccccc1C(=O)Nc1ccc(C(=O)OCC[N+](CC)(CC)CC2CC2)cc1.[Br-] [Compound 60, N-(Cyclopropylmethyl)-N,N-diethyl-2-((4-(2-(octyloxy)benzamido)benzoyl)oxy)-ethan-1-aminium bromide] |
| > 30 µg/mL | > 30 µg/mL | CCCCCCCCOc1cc(OCCCCCCCC)cc(C(=O)Nc2ccc(C(=O)OCC[N+](C)(CC)CC)cc2)c1.[Br-] [Compound 18, 2-((4-(3,5-Bis(octyloxy)benzamido)benzoyl)oxy)-N,N-diethyl-N-methylethan-1-aminium bromide] |
| > 30 µg/mL | > 30 µg/mL | CCCCCCCOc1ccccc1C(=O)Nc1ccc(C(=O)NC2CC[N+](C)(CC)CC2)cc1.[Br-] (stereo not shown) [Compound 81, 1-Ethyl-4-(4-(2-(heptyloxy)benzamido)benzamido)-1-methylpiperidin-1-ium bromide] |
| > 30 µg/mL | 3 to 30 µg/mL | CCCCCCCCOc1ccccc1C(=O)Nc1ccc(C(=O)N(C)CC[N+](CC)(CC)CCC)cc1.[Br-] [Compound 59, N,N-Diethyl-N-(2-(N-methyl-4-(2-(octyloxy)benzamido)benzamido)ethyl)propan-1-aminium bromide] |
| 3 to 30 µg/mL | < 3 µg/mL | CCCCCCCCOc1ccccc1C(=O)Nc1ccc(C(=O)OCC[N+](CC)(CC)CCC(C)C)cc1.[Br-] [Compound 63, N,N-Diethyl-3-methyl-N-(2-((4-(2-(octyloxy)benzamido)benzoyl)oxy)ethyl)butan-1-aminium bromide] |
| > 30 µg/mL | 3 to 30 µg/mL | CCCCCCCCCCOc1ccccc1C(=O)Nc1ccc(C(=O)OCC[N+](C)(CC)CC)cc1.[Br-] [Compound 24, 2-((4-(2-(Decyloxy)benzamido)benzoyl)oxy)-N,N-diethyl-N-methylethan-1-aminium bromide] |
| 3 to 30 µg/mL | < 3 µg/mL | CCCCCCCCOc1ccccc1C(=O)Nc1ccc(C(=O)OCC[N+](CC)(CC)Cc2cccc(OC)c2)cc1.[Br-] [Compound 50, N,N-Diethyl-N-(3-methoxybenzyl)-2-((4-(2-(octyloxy)benzamido)benzoyl)oxy)-ethan-1-aminium bromide] |
| 3 to 30 µg/mL | < 3 µg/mL | CCCCCCCCOc1ccccc1C(=O)Nc1ccc(C(=O)OCC[N+](CC)(CC)Cc2cccc(F)c2)cc1.[Br-] [Compound 42, N,N-Diethyl-N-(3-fluorobenzyl)-2-((4-(2-(octyloxy)benzamido)benzoyl)oxy)ethan-1-aminium bromide] |
